Reference: US6358885B1, “Substituted phenylheterocyclic herbicides” (Mississippi State University, priority 1992, dated 2002)

Experiments:
purple nutsedge = experiment: Test B preemergence/postemergence greenhouse plant response rating 0 to 10; format: in vivo, Cyperus rotundus; settings: 0 to 10 scale
Outline: (§1)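 Postemergence treatment of plants two to eighteen cm tall ran alongside preemergence treatment of planted seed, each using compound in a non-phytotoxic solvent.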

rice [1] = experiment: as above; format: in vivo, Oryza sativa; settings: 0 to 10 scale
Outline: as §1

barnyardgrass = experiment: Test C flood test plant response rating 0 to 100; format: in vivo, Echinochloa crus-galli
Outline: (§2)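 Compounds in non-phytotoxic solvent applied preemergence to sandy loam one day after planting, postemergence at the 1–4 leaf stage, or to ~2.5 cm floodwater over silt loam.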

umbrella sedge = experiment: Test C flood test plant response rating 0 to 100; format: in vivo, Cyperus difformis
Outline: as §2

corn = experiment: Test C preemergence/postemergence greenhouse plant response rating 0 to 100; format: in vivo, Zea mays; settings: POSTEMERGENCE
Outline: as §2

cocklebur = experiment: Test B preemergence/postemergence greenhouse plant response rating 0 to 10; format: in vivo, Xanthium pensylvanicum; settings: 0 to 10 scale
Outline: as §1

lambsquarters = experiment: as above; format: in vivo, Chenopodium album; settings: 0 to 10 scale
Outline: as §1

crabgrass = experiment: as above; format: in vivo, Digitaria spp.; settings: 0 to 10 scale
Outline: as §1

barley = experiment: as above; format: in vivo, Hordeum vulgare; settings: 0 to 10 scale
Outline: as §1

bedstraw = experiment: as above; format: in vivo, Galium aparine; settings: POSTEMERGENCE, 0 to 10 scale
Outline: as §1

sugar beet = experiment: as above; format: in vivo, Beta vulgaris; settings: 0 to 10 scale
Outline: as §1

sorghum = experiment: Test C preemergence/postemergence greenhouse plant response rating 0 to 100; format: in vivo, Sorghum bicolor; settings: POSTEMERGENCE
Outline: as §2

morningglory = experiment: as above; format: in vivo, Ipomoea hederacea; settings: POSTEMERGENCE
Outline: as §2

rape = experiment: Test B preemergence/postemergence greenhouse plant response rating 0 to 10; format: in vivo, Brassica napus; settings: 0 to 10 scale
Outline: as §1

pigweed = experiment: Test C preemergence/postemergence greenhouse plant response rating 0 to 100; format: in vivo, Amaranthusretroflexus; settings: POSTEMERGENCE
Outline: as §2

blackgrass = experiment: Test B preemergence/postemergence greenhouse plant response rating 0 to 10; format: in vivo, Alopecurus myosuroides; settings: 0 to 10 scale
Outline: as §1

rice [2] = experiment: Test C flood test plant response rating 0 to 100; format: in vivo, Oryza sativa
Outline: as §2

soybean = experiment: Test B preemergence/postemergence greenhouse plant response rating 0 to 10; format: in vivo, Glycine max; settings: 0 to 10 scale
Outline: as §1

[3] = POSTEMERGENCE section, flood test, Rate 1 g/ha
[4] = Rate 16 g/ha, under POSTEMERGENCE head (flood test species)
[5] = flood test species listed under POSTEMERGENCE, 62 g/ha, 0 to 100 scale
[6] = POSTEMERGENCE section, flood test, Rate 4 g/ha

C=CCN1C(=O)COc2cc(F)c(-c3nn4c(c3Cl)CCCC4)cc21 [Compound 33]
Plant response rating, Nutsedge (purple nutsedge; POSTEMERGENCE, Rate 10 g/ha): 0
Plant response rating, Nutsedge (purple nutsedge; POSTEMERGENCE, Rate 50 g/ha): 5
Plant response rating, Nutsedge (purple nutsedge; PREEMERGENCE, Rate 50 g/ha): 0
Plant response rating, Rice (rice [1]; POSTEMERGENCE, Rate 10 g/ha): 6
Plant response rating, Rice (rice [1]; POSTEMERGENCE, Rate 50 g/ha): 7
Plant response rating, Rice (rice [1]; PREEMERGENCE, Rate 50 g/ha): 3
Plant response rating (0 to 100), Barnyardgrass (barnyardgrass; [3]): 35
Plant response rating (0 to 100), Barnyardgrass (barnyardgrass; Rate 4 g/ha, under POSTEMERGENCE head (flood test species)): 65
Plant response rating (0 to 100), Barnyardgrass (barnyardgrass; [4]): 95
Plant response rating, Barnyardgrass (barnyardgrass; [5]): 100
Plant response rating (0 to 100), Umbrella sedge (umbrella sedge; [3]): 10
Plant response rating (0 to 100), Umbrella sedge (umbrella sedge; [6]): 20
Plant response rating (0 to 100), Umbrella sedge (umbrella sedge; [4]): 70
Plant response rating Umbrella sedge (umbrella sedge; [5]): 80
Plant response rating, Corn (corn; 62 g/ha, 0 to 100 scale): 40
Plant response rating (0 to 100), Corn (corn; Rate 1 g/ha): 20
Plant response rating (0 to 100), Corn (corn; Rate 4 g/ha): 30
Plant response rating (0 to 100), Corn (corn; Rate 16 g/ha): 30
Plant response rating, Cocklebur (cocklebur; POSTEMERGENCE, Rate 10 g/ha): 10
Plant response rating, Cocklebur (cocklebur; POSTEMERGENCE, Rate 50 g/ha): 10
Plant response rating, Cocklebur (cocklebur; PREEMERGENCE, Rate 10 g/ha): 0
Plant response rating, Cocklebur (cocklebur; PREEMERGENCE, Rate 50 g/ha): 5
Plant response rating, Lambsquarter (lambsquarters; POSTEMERGENCE, Rate 10 g/ha): 9
Plant response rating, Lambsquarter (lambsquarters; POSTEMERGENCE, Rate 50 g/ha): 10
Plant response rating, Lambsquarter (lambsquarters; PREEMERGENCE, Rate 50 g/ha): 10
Plant response rating, Crabgrass (crabgrass; POSTEMERGENCE, Rate 10 g/ha): 3
Plant response rating, Crabgrass (crabgrass; POSTEMERGENCE, Rate 50 g/ha): 5
Plant response rating, Crabgrass (crabgrass; PREEMERGENCE, Rate 10 g/ha): 2
Plant response rating, Crabgrass (crabgrass; PREEMERGENCE, Rate 50 g/ha): 6
Plant response rating, Barley (barley; POSTEMERGENCE, Rate 10 g/ha): 4
Plant response rating, Barley (barley; POSTEMERGENCE, Rate 50 g/ha): 4
Plant response rating, Barley (barley; PREEMERGENCE, Rate 10 g/ha): 0
Plant response rating, Barley (barley; PREEMERGENCE, Rate 50 g/ha): 1
Plant response rating, Bedstraw (bedstraw; Rate 10 g/ha): 8
Plant response rating, Bedstraw (bedstraw; Rate 50 g/ha): 9
Plant response rating, Sugar beet (sugar beet; POSTEMERGENCE, Rate 10 g/ha): 10
Plant response rating, Sugar beet (sugar beet; POSTEMERGENCE, Rate 50 g/ha): 10
Plant response rating, Sugar beet (sugar beet; PREEMERGENCE, Rate 50 g/ha): 10
Plant response rating, Sorghum (sorghum; 62 g/ha, 0 to 100 scale): 40
Plant response rating (0 to 100), Sorghum (sorghum; Rate 1 g/ha): 0
Plant response rating (0 to 100), Sorghum (sorghum; Rate 4 g/ha): 20
Plant response rating (0 to 100), Sorghum (sorghum; Rate 16 g/ha): 20
Plant response rating, Morningglory (morningglory; 62 g/ha, 0 to 100 scale): 100
Plant response rating (0 to 100), Morningglory (morningglory; Rate 1 g/ha): 50
Plant response rating (0 to 100), Morningglory (morningglory; Rate 4 g/ha): 70
Plant response rating (0 to 100), Morningglory (morningglory; Rate 16 g/ha): 90
Plant response rating, Rape (rape; POSTEMERGENCE, Rate 10 g/ha): 10
Plant response rating, Rape (rape; POSTEMERGENCE, Rate 50 g/ha): 10
Plant response rating, Rape (rape; PREEMERGENCE, Rate 50 g/ha): 5
Plant response rating Pigweed (pigweed; 62 g/ha, 0 to 100 scale): 100
Plant response rating (0 to 100), Pigweed (pigweed; Rate 1 g/ha): 100
Plant response rating (0 to 100), Pigweed (pigweed; Rate 4 g/ha): 100
Plant response rating (0 to 100), Pigweed (pigweed; Rate 16 g/ha): 100
Plant response rating, Blackgrass (blackgrass; POSTEMERGENCE, Rate 10 g/ha): 4
Plant response rating, Blackgrass (blackgrass; POSTEMERGENCE, Rate 50 g/ha): 5
Plant response rating, Blackgrass (blackgrass; PREEMERGENCE, Rate 10 g/ha): 3
Plant response rating, Blackgrass (blackgrass; PREEMERGENCE, Rate 50 g/ha): 5
Plant response rating (0 to 100), Rice Japonica (rice [2]; [3]): 20
Plant response rating (0 to 100), Rice Japonica (rice [2]; [6]): 50
Plant response rating (0 to 100), Rice Japonica (rice [2]; [4]): 60
Plant response rating Rice Japonica (rice [2]; [5]): 85
Plant response rating, Soybean (soybean; POSTEMERGENCE, Rate 10 g/ha): 8
Plant response rating, Soybean (soybean; POSTEMERGENCE, Rate 50 g/ha): 9
Plant response rating, Soybean (soybean; PREEMERGENCE, Rate 50 g/ha): 2
